In paper PMC8371461 (Frontiers in Pharmacology, 2021):

Key:
ULK2 = biological target: T1, ULK2 (Homo sapiens, UniProt Q8IYT8); experiment: kinome scan; format: binding; settings: 10 µM
T1 construct: purchased DiscoverX (KINOMEscan)

[1] = biological target: T2, ABL1(E255K)-phosphorylated (Homo sapiens, UniProt P00519, E255K); experiment: kinome scan; format: binding; settings: 10 µM
T2 construct: purchased DiscoverX (KINOMEscan)

CDKL3 = biological target: T3, CDKL3 (Homo sapiens, UniProt Q8IVW4); experiment: kinome scan; format: binding; settings: 10 µM
T3 construct: purchased DiscoverX (KINOMEscan)

MEK6 = biological target: T4, MEK6 (Homo sapiens, UniProt P52564); experiment: kinome scan; format: binding; settings: 10 µM
T4 construct: purchased DiscoverX (KINOMEscan)

INSR = biological target: T5, INSR (Homo sapiens, UniProt P06213); experiment: kinome scan; format: binding; settings: 10 µM
T5 construct: purchased DiscoverX (KINOMEscan)

CAMK4 = biological target: T6, CAMK4 (Homo sapiens, UniProt Q16566); experiment: kinome scan; format: binding; settings: 10 µM
T6 construct: purchased DiscoverX (KINOMEscan)

MTOR = biological target: T7, MTOR (Homo sapiens, UniProt P42345); experiment: kinome scan; format: binding; settings: 10 µM
T7 construct: purchased DiscoverX (KINOMEscan)

ACVR1 = biological target: T8, ACVR1 (Homo sapiens, UniProt Q04771); experiment: kinome scan; format: binding; settings: 10 µM
T8 construct: purchased DiscoverX (KINOMEscan)

YSK1 = biological target: T9, YSK1 (Homo sapiens, UniProt O00506); experiment: kinome scan; format: binding; settings: 10 µM
T9 construct: purchased DiscoverX (KINOMEscan)

LCK = biological target: T10, LCK (Homo sapiens, UniProt P06239); experiment: kinome scan; format: binding; settings: 10 µM
T10 construct: purchased DiscoverX (KINOMEscan)

RIPK5 = biological target: T11, RIPK5 (Homo sapiens, UniProt Q6XUX3); experiment: kinome scan; format: binding; settings: 10 µM
T11 construct: purchased DiscoverX (KINOMEscan)

MUSK = biological target: T12, MUSK (Homo sapiens, UniProt O15146); experiment: kinome scan; format: binding; settings: 10 µM
T12 construct: purchased DiscoverX (KINOMEscan)

PRKG2 = biological target: T13, PRKG2 (Homo sapiens, UniProt Q13237); experiment: kinome scan; format: binding; settings: 10 µM
T13 construct: purchased DiscoverX (KINOMEscan)

ASK2 = biological target: T14, ASK2 (Homo sapiens, UniProt O95382); experiment: kinome scan; format: binding; settings: 10 µM
T14 construct: purchased DiscoverX (KINOMEscan)

SRC = biological target: T15, SRC (Homo sapiens, UniProt P12931); experiment: kinome scan; format: binding; settings: 10 µM
T15 construct: purchased DiscoverX (KINOMEscan)

CAMK2D = biological target: T16, CAMK2D (Homo sapiens, UniProt Q13557); experiment: kinome scan; format: binding; settings: 10 µM
T16 construct: purchased DiscoverX (KINOMEscan)

PAK3 = biological target: T17, PAK3 (Homo sapiens, UniProt O75914); experiment: kinome scan; format: binding; settings: 10 µM
T17 construct: purchased DiscoverX (KINOMEscan)

MST3 = biological target: T18, MST3 (Homo sapiens, UniProt Q9Y6E0); experiment: kinome scan; format: binding; settings: 10 µM
T18 construct: purchased DiscoverX (KINOMEscan)

MAP3K1 = biological target: T19, MAP3K1 (Homo sapiens, UniProt Q13233); experiment: kinome scan; format: binding; settings: 10 µM
T19 construct: purchased DiscoverX (KINOMEscan)

DMPK = biological target: T20, DMPK (Homo sapiens, UniProt Q09013); experiment: kinome scan; format: binding; settings: 10 µM
T20 construct: purchased DiscoverX (KINOMEscan)

PAK7 = biological target: T21, PAK7 (Homo sapiens, UniProt Q9P286); experiment: kinome scan; format: binding; settings: 10 µM
T21 construct: purchased DiscoverX (KINOMEscan)

FGR = biological target: T22, FGR (Homo sapiens, UniProt P09769); experiment: kinome scan; format: binding; settings: 10 µM
T22 construct: purchased DiscoverX (KINOMEscan)

MLK1 = biological target: T23, MLK1 (Homo sapiens, UniProt P80192); experiment: kinome scan; format: binding; settings: 10 µM
T23 construct: purchased DiscoverX (KINOMEscan)

GCN2(Kin.Dom.2S808G) = biological target: T24, GCN2(Kin.Dom.2S808G) (Homo sapiens, UniProt Q9P2K8, S808G); experiment: kinome scan; format: binding; settings: 10 µM
T24 construct: GCN2(Kin.Dom.2S808G); purchased DiscoverX (KINOMEscan)

MKNK1 = biological target: T25, MKNK1 (Homo sapiens, UniProt Q9BUB5); experiment: kinome scan; format: binding; settings: 10 µM
T25 construct: purchased DiscoverX (KINOMEscan)

MKK7 = biological target: T26, MKK7 (Homo sapiens, UniProt O14733); experiment: kinome scan; format: binding; settings: 10 µM
T26 construct: purchased DiscoverX (KINOMEscan)

PSC = experiment: LC3B positive autophagosomes, immunofluorescent staining; format: cell-based, mouse; settings: 10 µM, three days
Method: Cells were fixed with PBS containing 0.5% of para-formaldehyde for 15 min at room temperature. After three washing steps in PBS, cells were permeabilized with PBS containing 0.3% of Triton X-100 (Sigma) for 1 h at room temperature. After washing with PBS three times, cells were incubated overnight with the anti-LC3B antibody in PBS with 1% bovine serum albumin (Sigma) at 4°C. After three washing steps in PBS, cells were incubated with the fluorescent secondary antibody for 90 min at 4°C in PBS with 1% bovine serum albumin. They were then incubated with […] DAPI (Thermofisher) in PBS for 15 min. After washing with PBS, cells were rinsed once in water prior to mounting in the FluorSave reagent (Millipore).
Depending of these transitory environmental conditions, autophagy can either promote survival or apoptosis ([Degtyarev et al., 2008]). PIK/AKT pathway inhibition has been reported to increase cell autophagy ([Palmieri et al., 2017]). More specifically, PIP4K2C has been described as a down-regulator of autophagy ([Sharma et al., 2019]).

PIK3CA(C420R) = biological target: T27, PIK3CA(C420R) (Homo sapiens, UniProt P42336, C420R); experiment: kinome scan; format: binding; settings: 10 µM
T27 construct: purchased DiscoverX (KINOMEscan)

PCTK1 = biological target: T28, PCTK1 (Homo sapiens, UniProt Q00536); experiment: kinome scan; format: binding; settings: 10 µM
T28 construct: purchased DiscoverX (KINOMEscan)

EGFR(G719C) = biological target: T29, EGFR(G719C) (Homo sapiens, UniProt P00533, G719C); experiment: kinome scan; format: binding; settings: 10 µM
T29 construct: purchased DiscoverX (KINOMEscan)

MAP4K5 = biological target: T30, MAP4K5 (Homo sapiens, UniProt Q9Y4K4); experiment: kinome scan; format: binding; settings: 10 µM
T30 construct: purchased DiscoverX (KINOMEscan)

CSK = biological target: T31, CSK (Homo sapiens, UniProt P41240); experiment: kinome scan; format: binding; settings: 10 µM
T31 construct: purchased DiscoverX (KINOMEscan)

SIK = biological target: T32, SIK (Homo sapiens, UniProt P57059); experiment: kinome scan; format: binding; settings: 10 µM
T32 construct: purchased DiscoverX (KINOMEscan)

[2] = biological target: T33, ABL1(T315I)-nonphosphorylated (Homo sapiens, UniProt P00519, T315I); experiment: kinome scan; format: binding; settings: 10 µM
T33 construct: purchased DiscoverX (KINOMEscan)

PCTK3 = biological target: T34, PCTK3 (Homo sapiens, UniProt Q07002); experiment: kinome scan; format: binding; settings: 10 µM
T34 construct: purchased DiscoverX (KINOMEscan)

TGFBR1 = biological target: T35, TGFBR1 (Homo sapiens, UniProt P36897); experiment: kinome scan; format: binding; settings: 10 µM
T35 construct: purchased DiscoverX (KINOMEscan)

AMPK-alpha1 = biological target: T36, AMPK-alpha1 (Homo sapiens, UniProt Q13131); experiment: kinome scan; format: binding; settings: 10 µM
T36 construct: purchased DiscoverX (KINOMEscan)
T36 sequence (Q13131 whole entry): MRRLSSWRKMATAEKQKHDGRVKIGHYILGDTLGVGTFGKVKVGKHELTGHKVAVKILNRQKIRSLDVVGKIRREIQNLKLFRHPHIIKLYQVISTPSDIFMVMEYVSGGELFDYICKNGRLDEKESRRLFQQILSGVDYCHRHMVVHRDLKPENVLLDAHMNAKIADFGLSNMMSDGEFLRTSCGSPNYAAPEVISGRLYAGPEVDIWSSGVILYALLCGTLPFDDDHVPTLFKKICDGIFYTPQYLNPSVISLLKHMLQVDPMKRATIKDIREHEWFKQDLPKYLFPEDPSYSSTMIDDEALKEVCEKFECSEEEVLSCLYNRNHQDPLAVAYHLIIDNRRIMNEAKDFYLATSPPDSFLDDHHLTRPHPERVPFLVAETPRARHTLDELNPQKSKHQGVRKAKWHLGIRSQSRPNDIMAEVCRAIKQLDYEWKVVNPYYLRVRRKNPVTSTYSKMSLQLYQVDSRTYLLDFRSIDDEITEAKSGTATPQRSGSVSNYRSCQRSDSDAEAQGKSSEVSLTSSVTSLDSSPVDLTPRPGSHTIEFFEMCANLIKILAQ

T28 sequence (Q00536 whole entry): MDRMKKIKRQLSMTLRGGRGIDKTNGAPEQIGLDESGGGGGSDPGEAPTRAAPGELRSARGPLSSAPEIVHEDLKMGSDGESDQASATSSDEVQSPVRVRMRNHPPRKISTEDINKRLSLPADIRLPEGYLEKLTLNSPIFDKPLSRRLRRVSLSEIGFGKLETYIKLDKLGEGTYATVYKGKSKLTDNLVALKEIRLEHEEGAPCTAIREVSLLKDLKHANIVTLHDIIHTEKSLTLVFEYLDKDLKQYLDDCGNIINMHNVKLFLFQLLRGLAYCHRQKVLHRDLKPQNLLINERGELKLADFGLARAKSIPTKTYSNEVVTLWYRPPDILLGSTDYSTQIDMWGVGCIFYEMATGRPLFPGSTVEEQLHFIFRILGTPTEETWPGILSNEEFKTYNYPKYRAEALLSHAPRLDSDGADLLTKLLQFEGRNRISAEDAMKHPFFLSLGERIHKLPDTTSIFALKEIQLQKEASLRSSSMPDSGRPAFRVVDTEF
T9 sequence (O00506 whole entry): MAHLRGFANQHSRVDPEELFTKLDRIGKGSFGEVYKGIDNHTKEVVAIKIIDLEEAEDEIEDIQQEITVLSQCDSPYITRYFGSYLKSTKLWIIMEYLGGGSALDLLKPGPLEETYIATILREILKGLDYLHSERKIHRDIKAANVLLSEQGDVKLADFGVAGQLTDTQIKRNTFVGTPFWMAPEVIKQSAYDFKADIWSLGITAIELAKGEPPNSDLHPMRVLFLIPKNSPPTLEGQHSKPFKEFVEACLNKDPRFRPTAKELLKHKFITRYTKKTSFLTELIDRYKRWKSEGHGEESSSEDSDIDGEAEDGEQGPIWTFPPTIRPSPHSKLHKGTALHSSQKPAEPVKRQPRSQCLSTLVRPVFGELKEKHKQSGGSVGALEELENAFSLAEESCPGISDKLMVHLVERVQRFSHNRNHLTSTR
T5 sequence (P06213 28-1382): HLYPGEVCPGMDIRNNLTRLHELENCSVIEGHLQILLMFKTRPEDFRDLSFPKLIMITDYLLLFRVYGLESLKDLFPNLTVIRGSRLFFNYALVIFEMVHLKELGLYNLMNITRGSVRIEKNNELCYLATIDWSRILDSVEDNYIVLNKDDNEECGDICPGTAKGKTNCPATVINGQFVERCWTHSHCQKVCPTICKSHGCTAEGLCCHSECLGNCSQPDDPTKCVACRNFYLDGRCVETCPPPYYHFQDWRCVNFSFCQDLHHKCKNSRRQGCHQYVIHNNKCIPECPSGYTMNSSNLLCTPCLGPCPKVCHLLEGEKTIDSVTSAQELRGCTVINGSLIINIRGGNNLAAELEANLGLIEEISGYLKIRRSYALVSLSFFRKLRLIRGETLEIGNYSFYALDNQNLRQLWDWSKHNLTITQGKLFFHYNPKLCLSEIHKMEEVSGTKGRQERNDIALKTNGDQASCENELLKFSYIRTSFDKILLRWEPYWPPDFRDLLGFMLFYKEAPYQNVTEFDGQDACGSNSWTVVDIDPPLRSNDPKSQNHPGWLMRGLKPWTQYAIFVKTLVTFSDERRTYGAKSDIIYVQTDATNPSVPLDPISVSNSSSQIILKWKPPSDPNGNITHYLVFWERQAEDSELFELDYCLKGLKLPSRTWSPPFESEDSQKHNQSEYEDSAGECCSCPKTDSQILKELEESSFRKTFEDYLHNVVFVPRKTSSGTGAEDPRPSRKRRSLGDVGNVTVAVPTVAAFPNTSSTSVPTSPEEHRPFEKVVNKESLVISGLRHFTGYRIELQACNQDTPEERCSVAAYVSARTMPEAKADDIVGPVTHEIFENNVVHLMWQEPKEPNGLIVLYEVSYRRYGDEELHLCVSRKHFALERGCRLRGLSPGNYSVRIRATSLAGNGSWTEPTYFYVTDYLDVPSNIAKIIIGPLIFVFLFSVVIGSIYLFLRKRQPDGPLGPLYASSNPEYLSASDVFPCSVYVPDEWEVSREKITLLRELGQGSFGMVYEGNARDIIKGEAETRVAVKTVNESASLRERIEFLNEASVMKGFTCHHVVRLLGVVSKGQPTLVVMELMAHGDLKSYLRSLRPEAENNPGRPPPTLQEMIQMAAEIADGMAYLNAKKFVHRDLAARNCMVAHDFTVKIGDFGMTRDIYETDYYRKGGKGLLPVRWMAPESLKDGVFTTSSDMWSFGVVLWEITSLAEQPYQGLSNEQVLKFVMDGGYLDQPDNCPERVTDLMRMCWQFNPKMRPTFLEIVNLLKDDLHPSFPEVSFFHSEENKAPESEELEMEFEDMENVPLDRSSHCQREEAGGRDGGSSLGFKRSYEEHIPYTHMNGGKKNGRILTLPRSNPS
T17 sequence (O75914 whole entry): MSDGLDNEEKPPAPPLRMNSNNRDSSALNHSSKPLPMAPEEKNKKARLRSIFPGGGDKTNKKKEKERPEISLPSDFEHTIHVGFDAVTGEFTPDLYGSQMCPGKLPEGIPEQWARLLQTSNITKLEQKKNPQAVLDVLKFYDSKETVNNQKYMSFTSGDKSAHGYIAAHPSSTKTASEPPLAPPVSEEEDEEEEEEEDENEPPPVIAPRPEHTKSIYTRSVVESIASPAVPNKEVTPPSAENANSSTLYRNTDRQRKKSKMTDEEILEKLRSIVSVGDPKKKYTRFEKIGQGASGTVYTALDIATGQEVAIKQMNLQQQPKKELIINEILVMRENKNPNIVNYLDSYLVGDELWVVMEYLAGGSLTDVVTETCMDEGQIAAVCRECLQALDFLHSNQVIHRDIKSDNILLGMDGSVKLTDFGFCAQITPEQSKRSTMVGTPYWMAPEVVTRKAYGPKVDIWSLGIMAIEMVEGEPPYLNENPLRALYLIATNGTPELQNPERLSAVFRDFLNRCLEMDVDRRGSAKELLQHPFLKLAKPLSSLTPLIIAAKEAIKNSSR
T8 sequence (Q04771 21-509): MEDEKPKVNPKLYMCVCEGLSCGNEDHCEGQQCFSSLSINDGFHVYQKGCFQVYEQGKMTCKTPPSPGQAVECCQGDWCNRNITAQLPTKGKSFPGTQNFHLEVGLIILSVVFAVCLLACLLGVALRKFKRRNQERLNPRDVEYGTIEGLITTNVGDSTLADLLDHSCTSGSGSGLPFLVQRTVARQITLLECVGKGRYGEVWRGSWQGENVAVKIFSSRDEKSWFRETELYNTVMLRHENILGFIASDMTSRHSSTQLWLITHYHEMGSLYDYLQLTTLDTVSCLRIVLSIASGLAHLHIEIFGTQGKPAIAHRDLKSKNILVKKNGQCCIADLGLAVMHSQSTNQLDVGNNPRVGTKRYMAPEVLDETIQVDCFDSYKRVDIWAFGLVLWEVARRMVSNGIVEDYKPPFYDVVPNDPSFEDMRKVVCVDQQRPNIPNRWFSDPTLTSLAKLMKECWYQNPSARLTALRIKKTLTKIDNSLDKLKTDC
T12 sequence (O15146 24-869): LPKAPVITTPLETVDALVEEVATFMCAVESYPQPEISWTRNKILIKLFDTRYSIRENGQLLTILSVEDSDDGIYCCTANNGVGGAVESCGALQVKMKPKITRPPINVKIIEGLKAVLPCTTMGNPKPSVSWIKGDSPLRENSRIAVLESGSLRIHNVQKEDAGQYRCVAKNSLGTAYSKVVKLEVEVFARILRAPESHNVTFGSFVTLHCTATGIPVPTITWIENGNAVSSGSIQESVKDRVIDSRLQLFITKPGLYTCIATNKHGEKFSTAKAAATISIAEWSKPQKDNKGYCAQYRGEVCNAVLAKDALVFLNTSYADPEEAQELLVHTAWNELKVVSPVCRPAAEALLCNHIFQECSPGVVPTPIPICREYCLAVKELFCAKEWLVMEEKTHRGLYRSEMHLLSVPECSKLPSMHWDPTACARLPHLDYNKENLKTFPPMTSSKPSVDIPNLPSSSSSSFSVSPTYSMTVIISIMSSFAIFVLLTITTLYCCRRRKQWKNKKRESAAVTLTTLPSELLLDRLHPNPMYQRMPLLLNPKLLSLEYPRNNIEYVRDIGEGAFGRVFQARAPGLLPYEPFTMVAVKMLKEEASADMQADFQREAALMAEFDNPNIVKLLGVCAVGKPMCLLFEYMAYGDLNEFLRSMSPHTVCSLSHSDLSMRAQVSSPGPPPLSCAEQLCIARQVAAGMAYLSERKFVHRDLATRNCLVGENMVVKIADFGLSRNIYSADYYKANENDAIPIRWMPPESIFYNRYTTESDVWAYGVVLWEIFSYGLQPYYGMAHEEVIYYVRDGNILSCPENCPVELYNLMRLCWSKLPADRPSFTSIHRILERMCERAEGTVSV

Nc1ccc(N=Nc2ccccc2)c(N)n1 [phenazopyridine, 2,6-diamino-3-(phenylazo)pyridine]
kinase inhibition (ULK2): 96
kinase inhibition [1]: 62
kinase inhibition (CDKL3): 74
kinase inhibition (MEK6): 95
kinase inhibition (INSR): 75
kinase inhibition (CAMK4): 67
kinase inhibition (MTOR): 74
kinase inhibition (ACVR1): 100
kinase inhibition (YSK1): 96
kinase inhibition (LCK): 96
kinase inhibition (RIPK5): 68
kinase inhibition (MUSK): 91
kinase inhibition (PRKG2): 81
kinase inhibition (ASK2): 83
kinase inhibition (SRC): 100
kinase inhibition (CAMK2D): 88
kinase inhibition (PAK3): 99
kinase inhibition (MST3): 98
kinase inhibition (MAP3K1): 100
kinase inhibition (DMPK): 89
kinase inhibition (PAK7): 100
remaining binding (% of control) (FGR): 87
kinase inhibition (MLK1): 87
remaining binding (% of control) (GCN2(Kin.Dom.2S808G)): 100
kinase inhibition (MKNK1): 37
kinase inhibition (MKK7): 100
number of LC3B-positive autophagosomes (PSC): increased
kinase inhibition (PIK3CA(C420R)): 100
kinase inhibition (PCTK1): 98
kinase inhibition (EGFR(G719C)): 80
kinase inhibition (MAP4K5): 100
kinase inhibition (CSK): 100
kinase inhibition (SIK): 100
kinase inhibition [2]: 100
kinase inhibition (PCTK3): 75
kinase inhibition (TGFBR1): 100
kinase inhibition (AMPK-alpha1): 99
